# Source: patent US20240173329A1, “BELVARAFENIB FOR USE IN TREATMENT OF BRAIN CANCERS” (Genentech, Inc., priority 2021, published 2024)
# Assays:
# [1] = target: colony stimulating factor 1 receptor (CSF1R) (Homo sapiens, UniProt P07333); experiment: panel of 189 kinase assays; type: biochemical
# EPHB2 = target: T1, EPHB2 (Homo sapiens, UniProt P29323); experiment: panel of 189 kinase assays; type: biochemical
# T1 sequence (P29323 19-1055): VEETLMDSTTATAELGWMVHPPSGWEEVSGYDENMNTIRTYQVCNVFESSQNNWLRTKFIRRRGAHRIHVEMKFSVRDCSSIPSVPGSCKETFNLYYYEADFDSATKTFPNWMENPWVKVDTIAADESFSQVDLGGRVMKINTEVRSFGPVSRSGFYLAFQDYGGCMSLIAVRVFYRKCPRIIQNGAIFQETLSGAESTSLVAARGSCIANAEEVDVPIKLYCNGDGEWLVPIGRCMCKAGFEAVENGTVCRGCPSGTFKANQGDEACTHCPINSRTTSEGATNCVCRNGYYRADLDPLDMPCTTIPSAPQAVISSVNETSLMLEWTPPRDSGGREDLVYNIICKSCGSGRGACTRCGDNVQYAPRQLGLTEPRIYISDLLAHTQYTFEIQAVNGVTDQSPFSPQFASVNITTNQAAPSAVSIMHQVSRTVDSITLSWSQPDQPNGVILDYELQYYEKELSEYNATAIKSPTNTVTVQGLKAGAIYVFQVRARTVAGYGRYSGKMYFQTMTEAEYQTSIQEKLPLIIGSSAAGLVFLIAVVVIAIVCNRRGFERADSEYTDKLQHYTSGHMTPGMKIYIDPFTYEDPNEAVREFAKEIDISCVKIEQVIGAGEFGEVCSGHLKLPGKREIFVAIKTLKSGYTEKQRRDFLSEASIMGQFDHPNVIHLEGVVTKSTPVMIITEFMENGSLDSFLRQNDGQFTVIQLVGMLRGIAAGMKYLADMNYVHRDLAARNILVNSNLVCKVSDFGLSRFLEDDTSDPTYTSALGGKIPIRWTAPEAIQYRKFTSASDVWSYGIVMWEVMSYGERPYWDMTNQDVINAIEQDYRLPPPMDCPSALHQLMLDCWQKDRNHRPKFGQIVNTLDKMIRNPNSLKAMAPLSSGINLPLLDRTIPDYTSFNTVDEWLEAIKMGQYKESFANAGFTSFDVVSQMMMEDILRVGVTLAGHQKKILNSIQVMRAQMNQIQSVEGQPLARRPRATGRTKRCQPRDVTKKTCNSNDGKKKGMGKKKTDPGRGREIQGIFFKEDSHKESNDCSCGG
# [2] = test system: solid tumors harboring mutations in BRAF, KRAS, or NRAS genes; experiment: open-label Phase Ib dose-expansion study; type: in vivo, human
# Description: In another open-label, Phase Ib, dose-expansion study, belvarafenib was evaluated at a dose of 450 mg BID in patients with solid tumors harboring mutations in BRAF, KRAS, or NRAS genes. Efficacy was analyzed for 59 of 63 subjects who had at least 1 dose of belvarafenib after enrollment and had at least 1 post-baseline tumor assessment. BORR was 11.86% (7/59 subjects), ORR was 6.78% (4/59 subjects) with PR as confirmed best overall response (3 subjects with melanoma and a subject with CRC). […] Fifty (84.75%) of 59 subjects developed an event (progression of disease or death), all of which were reported as PD except 1 death case. In addition, median progression-free survival (PFS) was 7.83 weeks and the 95% confidence interval for the median was [7.26 weeks, 8.26 weeks]. Median duration of response (DOR) of a total response in this study was 15.66 weeks from 7 responders.
# [3] = test system: solid tumors harboring mutations in BRAF, KRAS, or NRAS genes; experiment: open-label Phase Ia dose-escalation study; type: in vivo, human; conditions: for Median DOR: updated
# Description: For instance, a completed, open-label, Phase Ia, dose-escalation investigated several doses and schedules of belvarafenib in patients with solid tumors harboring mutations in BRAF, KRAS, or NRAS genes. Efficacy was analyzed for 67 of 72 subjects who had at least 1 post-baseline tumor assessment. […] Fifty-nine (88.06%) subjects developed an event (progression of disease or death), all of which were reported as progressive disease (PD). In addition, median progression-free survival was 11.53 weeks and the 95% confidence interval for the median was [7.12 weeks, 13.38 weeks). […] Median DOR was elevated to 30.18 weeks in 800 mg BID group and 23.99 weeks in total group including DOR of a subject which is 100.29 weeks.
# colony stimulating factor 1 receptor (CSF1R), sequence (P07333 20-972, species assumed): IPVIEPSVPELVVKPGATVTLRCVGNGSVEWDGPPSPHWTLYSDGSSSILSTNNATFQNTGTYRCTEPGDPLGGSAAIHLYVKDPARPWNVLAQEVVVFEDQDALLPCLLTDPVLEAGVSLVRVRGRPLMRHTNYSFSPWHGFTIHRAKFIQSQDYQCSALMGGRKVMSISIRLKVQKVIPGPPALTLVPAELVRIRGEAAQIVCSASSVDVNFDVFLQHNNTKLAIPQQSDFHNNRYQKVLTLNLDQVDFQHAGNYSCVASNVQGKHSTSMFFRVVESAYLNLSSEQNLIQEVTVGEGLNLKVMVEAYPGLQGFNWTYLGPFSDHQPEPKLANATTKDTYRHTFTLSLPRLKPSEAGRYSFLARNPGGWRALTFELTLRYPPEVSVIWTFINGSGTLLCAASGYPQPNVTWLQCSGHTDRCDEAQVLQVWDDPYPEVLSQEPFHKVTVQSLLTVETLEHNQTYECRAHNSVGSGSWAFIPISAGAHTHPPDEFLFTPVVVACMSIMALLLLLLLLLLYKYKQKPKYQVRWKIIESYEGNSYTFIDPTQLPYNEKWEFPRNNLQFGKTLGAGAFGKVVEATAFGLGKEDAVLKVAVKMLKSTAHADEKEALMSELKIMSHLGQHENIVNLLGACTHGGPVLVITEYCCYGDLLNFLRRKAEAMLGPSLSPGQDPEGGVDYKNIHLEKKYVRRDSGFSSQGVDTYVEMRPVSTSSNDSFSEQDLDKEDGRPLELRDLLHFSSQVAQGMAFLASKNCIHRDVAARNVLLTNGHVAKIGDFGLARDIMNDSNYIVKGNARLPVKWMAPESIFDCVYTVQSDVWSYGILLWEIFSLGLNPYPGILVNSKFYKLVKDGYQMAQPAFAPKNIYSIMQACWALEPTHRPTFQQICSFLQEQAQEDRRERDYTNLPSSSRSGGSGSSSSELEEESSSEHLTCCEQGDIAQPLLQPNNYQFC
smiles,measurement,setting,value
"Cc1ccc2c(Nc3cccc(Cl)c3F)nccc2c1NC(=O)c1csc2c(N)ncnc12 [Belvarafenib, 4-amino-N-(1-((3-chloro-2-fluorophenyl)amino)-6-methylisoquinolin-5-yl)thieno[3,2-d]pyrimidine-7-carboxamide]",inhibition at 1 µM,[1],> 90%
same,inhibition at 1 µM,EPHB2,> 90%
same,Disease control,[2]; 450 mg BID,35.59%
same,ORR,[2]; 450 mg BID,6.78%
same,median progression-free survival (PFS),[2]; 450 mg BID,7.83 weeks
same,subjects who developed an event (progression of disease or death),[2]; 450 mg BID,84.75%
same,Median duration of response (DOR),"[2]; 450 mg BID, 7 responders",15.66 weeks
same,BORR,"[2]; 450 mg BID, 59 evaluable subjects",11.86%
same,Median DOR,[2]; 2 BRAF-mutant melanoma responders,22.49 weeks
same,Median DOR,[3]; 800 mg BID group,30.18 weeks
same,Best overall response rate (BORR),[3]; 67 evaluable subjects,8.96%
same,objective response rate (ORR),[3]; 67 evaluable subjects,4.48%
same,subjects who developed an event (progression of disease or death),[3]; 67 evaluable subjects,88.06%
same,"BORR, subgroup re-analysis",[3]; BRAF-mutant melanoma subjects (13),7.69%
same,median progression-free survival,[3]; in vivo,11.53 weeks
same,DOR of a subject,[3]; single subject,100.29 weeks
same,Disease control,[3]; subjects treated with 100 mg QD dose level or above,50.57%
same,Median DOR,[3]; total group,23.99 weeks
same,"BORR, updated results",[3]; updated results,10.45%
same,"ORR, updated results",[3]; updated results,4.48%
